Measurements taken from patent EP4745134A1 (Jiangsu Yahong Meditech Co., Ltd., priority 2023, dated 2025).

Columns and labels:
PRMT5-MTA = PRMT5-MTA (Homo sapiens, UniProt O14744); test: Enzymatic inhibitory activity against PRMT5-MTA (AlphaScreen); type: biochemical; conditions: read-out: IC50
Outline: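 PRMT5/[…] (1 nM) was preincubated for 30 min at room temperature with 1 µM […] and 2.5 µM SAM, then exposed to compound (10-point, 3-fold from 1000 nM) for 15 min at 23 °C. Histone H4 substrate (5 nM) was added and reacted for 45 min at 23 °C. Symmetric dimethyl-R3 H4 was detected by AlphaScreen and IC50 calculated.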

HCT116 MTAP KO cells = test: Inhibitory activity against cell proliferation (CellTiter Glo, 6 days), HCT116 MTAP KO; type: cell-based; conditions: for IC50: Homo sapiens, HCT-116, 144 h, HCT116 MTAP KO cells, 6 days, CellTiter Glo, read-out: HCT116 MTAP KO IC50; for Selectivity HCT 116-WT/ HCT116 MTAP KO: ratio of IC50 HCT116-WT / HCT116 MTAP KO
Outline: (§1)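 250 cells/well, McCoy's 5A + 10% FBS, o/n 37°C 5% CO2; cpd 8-pt 4-fold from 10000 nM, 6 d; CTG lum on day 7; IC50 vs DMSO.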

HCT116-WT cells = test: Inhibitory activity against cell proliferation (CellTiter Glo, 6 days), HCT116-WT; type: cell-based; conditions: 144 h, HCT116-WT cells, 6 days, CellTiter Glo; read-out: HCT116-WT IC50
Outline: as §1

Chain of PRMT5-MTA (O14744 whole entry): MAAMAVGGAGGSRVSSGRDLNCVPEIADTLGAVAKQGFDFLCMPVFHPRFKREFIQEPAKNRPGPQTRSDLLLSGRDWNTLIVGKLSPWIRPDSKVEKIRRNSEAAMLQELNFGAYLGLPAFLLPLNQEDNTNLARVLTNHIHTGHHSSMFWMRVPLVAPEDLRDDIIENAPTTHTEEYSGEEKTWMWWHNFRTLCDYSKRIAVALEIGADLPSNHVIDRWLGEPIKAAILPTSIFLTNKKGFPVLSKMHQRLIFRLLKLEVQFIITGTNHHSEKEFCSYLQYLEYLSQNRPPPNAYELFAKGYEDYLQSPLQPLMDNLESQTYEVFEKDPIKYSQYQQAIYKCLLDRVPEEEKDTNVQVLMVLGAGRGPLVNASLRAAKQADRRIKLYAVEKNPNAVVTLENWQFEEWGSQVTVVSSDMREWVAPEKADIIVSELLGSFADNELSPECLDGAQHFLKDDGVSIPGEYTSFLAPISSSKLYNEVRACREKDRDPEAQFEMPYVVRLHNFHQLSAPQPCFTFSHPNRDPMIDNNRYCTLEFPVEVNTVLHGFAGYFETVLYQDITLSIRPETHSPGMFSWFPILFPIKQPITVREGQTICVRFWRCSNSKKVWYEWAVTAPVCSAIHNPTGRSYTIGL
Chain of PRMT5-MTA (Q9BQA1 whole entry partner): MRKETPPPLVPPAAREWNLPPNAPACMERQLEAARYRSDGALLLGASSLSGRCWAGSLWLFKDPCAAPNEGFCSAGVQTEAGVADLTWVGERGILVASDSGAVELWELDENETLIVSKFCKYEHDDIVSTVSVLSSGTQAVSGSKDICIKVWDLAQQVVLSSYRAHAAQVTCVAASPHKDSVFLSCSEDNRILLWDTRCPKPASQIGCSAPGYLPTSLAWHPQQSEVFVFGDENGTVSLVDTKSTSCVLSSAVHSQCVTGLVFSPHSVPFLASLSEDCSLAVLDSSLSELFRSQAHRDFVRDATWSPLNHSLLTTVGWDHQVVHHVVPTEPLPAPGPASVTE

For `Cc1cc2cc(C(=O)N(Cc3ccc(-c4ccccc4)cn3)N(C)c3ncccn3)ccc2nc1N` [Example 202, 2-amino-N',3-dimethyl-N-((5-phenylpyridin-2-yl)methyl)-N'-(pyrimidin-2-yl)quin oline-6-carbohydrazide], the IC50 (PRMT5-MTA) was 2.9 nM, the IC50 (HCT116 MTAP KO cells) was 74 nM and the “Selectivity HCT 116-WT/ HCT116 MTAP KO” value (HCT116 MTAP KO cells) was 14.26. It also gave an IC50 (HCT116-WT cells) of 1060 nM.
In the case of `Cc1cc2cc(C(=O)N(Cc3ccc(-c4cnn(C(C)C)c4)cn3)N(C)c3ncccn3)ccc2nc1N` [Example 203, 2-amino-N-((5-(1-isopropyl-1H-pyrazol-4-yl)pyridin-2-yl)methyl)-N',3-dimethyl-N'-(pyrimidin-2-yl)quinoline-6-carbohydrazide], the IC50 (PRMT5-MTA) is reported as 1.8 nM, the IC50 (HCT116 MTAP KO cells) is reported as 40 nM and the “Selectivity HCT 116-WT/ HCT116 MTAP KO” value (HCT116 MTAP KO cells) is reported as 25.65. For the same compound, the IC50 (HCT116-WT cells) was 1030 nM.
With `Cc1cc2cc(C(=O)N(Cc3ccc(-c4ccc(N5CCCC5)nc4)cn3)N(C)c3ncccn3)ccc2nc1N` [Example 211, 2-amino-N',3-dimethyl-N'-(pyrimidin-2-yl)-N-((6'-(pyrrolidin-1-yl)-[3,3'-bipyridine]-6-yl)methyl)quinoline-6-carbohydrazide] the IC50 (PRMT5-MTA) was 2.3 nM, the IC50 (HCT116 MTAP KO cells) was 84 nM and the “Selectivity HCT 116-WT/ HCT116 MTAP KO” value (HCT116 MTAP KO cells) was 18.96. The IC50 (HCT116-WT cells) was 1590 nM.
In the case of `Cc1cc2cc(C(=O)N(Cc3ccc(-c4cncs4)cn3)N(c3ncccn3)C3CC3)ccc2nc1N` [Example 215, 2-amino-N'-cyclopropyl-3-methyl-N'-(pyrimidin-2-yl)-N-((5-(thiazol-5-yl)pyridin-2-yl)methyl)quinoline-6-carbohydrazide], the IC50 (PRMT5-MTA) is reported as 5.3 nM, the IC50 (HCT116 MTAP KO cells) is reported as 7.1 nM and the “Selectivity HCT 116-WT/ HCT116 MTAP KO” value (HCT116 MTAP KO cells) is reported as 25.07. It also gave an IC50 (HCT116-WT cells) of 178 nM.
With `Cc1cc2cc(C(=O)N(Cc3ccc(-c4cnn(C(F)(F)F)c4)cn3)N(c3ncccn3)C3CC3)ccc2nc1N` [Example 216, 2-amino-N'-cyclopropyl-3-methyl-N'-(pyrimidin-2-yl)-N-((5-(1-(trifluoromethyl)-1H-pyrazol-4-yl)pyridin-2-yl)methyl)qui noline-6-carbohydrazide] the IC50 (PRMT5-MTA) was 3.3 nM, the IC50 (HCT116 MTAP KO cells) was 23 nM and the “Selectivity HCT 116-WT/ HCT116 MTAP KO” value (HCT116 MTAP KO cells) was 27.26. For the same compound, the IC50 (HCT116-WT cells) was 627 nM.
In the case of `Cc1cc2cc(C(=O)N(Cc3ccc(C4CCOC4)cn3)N(C)c3ncccn3)ccc2nc1N` (stereo not drawn) [Example 217, 2-amino-N',3-dimethyl-N'-(pyrimidin-2-yl)-N-((5-(tetrahydrofuran-3-yl)pyridin-2-yl)methyl)quinoline-6-carbohydrazide], the IC50 (PRMT5-MTA) is reported as 2.9 nM, the IC50 (HCT116 MTAP KO cells) is reported as 70 nM and the “Selectivity HCT 116-WT/ HCT116 MTAP KO” value (HCT116 MTAP KO cells) is reported as 42.11. For the same compound, the IC50 (HCT116-WT cells) was 2950 nM.
In the case of `Cc1cc2cc(C(=O)N(Cc3ccc(C4CCOCC4)cn3)N(C)c3ncccn3)ccc2nc1N` [Example 218, 2-amino-N',3-dimethyl-N'-(pyrimidin-2-yl)-N-((5-(tetrahydro-2H-pyran-4-yl)pyridin-2-yl)methyl)quinoline-6-carbohydrazide], the IC50 (PRMT5-MTA) is reported as 7 nM, the IC50 (HCT116 MTAP KO cells) is reported as 291 nM and the “Selectivity HCT 116-WT/ HCT116 MTAP KO” value (HCT116 MTAP KO cells) is reported as 10.56. The IC50 (HCT116-WT cells) was 3070 nM.
With `Cc1cc2cc(C(=O)N(Cc3ccc(-c4ccnnc4)cn3)N(C)c3ncccn3)ccc2nc1N` [Example 220, 2-amino-N',3-dimethyl-N-((5-(pyridazin-4-yl)pyridin-2-yl)methyl)-N'-(pyrimidin-2-yl) quinoline-6-carbohydrazide] the IC50 (PRMT5-MTA) was 1.2 nM, the IC50 (HCT116 MTAP KO cells) was 23 nM and the “Selectivity HCT 116-WT/ HCT116 MTAP KO” value (HCT116 MTAP KO cells) was 17.61. It also gave an IC50 (HCT116-WT cells) of 405 nM.
In the case of `Cc1cc2cc(C(=O)N(Cc3ccc(-c4cscn4)cn3)N(C)c3ncccn3)ccc2nc1N` [Example 221, 2-amino-N',3-dimethyl-N'-(pyrimidin-2-yl)-N-((5-(thiazol-4-yl)pyridin-2-yl)methyl)quinoline-6-carbohydrazide], the IC50 (PRMT5-MTA) is reported as 2.3 nM, the IC50 (HCT116 MTAP KO cells) is reported as 69 nM and the “Selectivity HCT 116-WT/ HCT116 MTAP KO” value (HCT116 MTAP KO cells) is reported as 27.16. It also gave an IC50 (HCT116-WT cells) of 1870 nM.
With `Cc1cc2cc(C(=O)N(Cc3ncc(-c4cccnc4)cc3F)N(C)c3ncccn3)ccc2nc1N` [Example 222, 2-amino-N-((5-fluoro-[3,3'-bipyridine]-6-yl)methyl)-N',3-dimethyl-N'-(pyrimidin-2-yl)quinoline-6-carbohydrazide] the IC50 (PRMT5-MTA) was 1.4 nM, the IC50 (HCT116 MTAP KO cells) was 20 nM and the “Selectivity HCT 116-WT/ HCT116 MTAP KO” value (HCT116 MTAP KO cells) was 16.40. The IC50 (HCT116-WT cells) was 328 nM.
In the case of `Cc1cc2cc(C(=O)N(Cc3ccc(N4CCC(F)(F)C4)cn3)N(C)c3ncccn3)ccc2nc1N` [Example 224, 2-amino-N-((5-(3,3-difluoropyrrolidin-1-yl)pyridin-2-yl)methyl)-N',3-dimethyl-N'-(pyrimidin-2-yl)quinoline-6-carbohydrazide], the IC50 (PRMT5-MTA) is reported as 16 nM, the IC50 (HCT116 MTAP KO cells) is reported as 470 nM and the IC50 (HCT116-WT cells) is reported as greater than 10000 nM.
`COCc1ncsc1-c1ccc(CN(C(=O)c2ccc3nc(N)c(C)cc3c2)N(C)c2ncccn2)nc1` [Example 226, 2-amino-N-((5-(4-(methoxymethyl)thiazol-5-yl)pyridin-2-yl)methyl)-N',3-dimethyl-N'-(pyrimidin-2-yl)quinoline-6-carbohydrazide] was tested, and the IC50 (PRMT5-MTA) was 5 nM, the IC50 (HCT116 MTAP KO cells) was 28 nM and the “Selectivity HCT 116-WT/ HCT116 MTAP KO” value (HCT116 MTAP KO cells) was 31.82. It also gave an IC50 (HCT116-WT cells) of 891 nM.
For `Cc1cc2cc(C(=O)N(Cc3ccc(-c4nncs4)cn3)N(C)c3ncccn3)ccc2nc1N` [Example 229, N-((5-(1,3,4-thiadiazol-2-yl)pyridin-2-yl)methyl)-2-amino-N',3-dimethyl-N'-(pyrimidin-2-yl)quinoline-6-carbohydrazide], the IC50 (PRMT5-MTA) was 3.7 nM, the IC50 (HCT116 MTAP KO cells) was 14 nM and the “Selectivity HCT 116-WT/ HCT116 MTAP KO” value (HCT116 MTAP KO cells) was 47.86. It also gave an IC50 (HCT116-WT cells) of 670 nM.
In the case of `Cc1cc2cc(C(=O)N(Cc3ccc(-c4nncs4)cn3)N(C)c3nccc4nccnc34)ccc2nc1N` [Example 232, N-((5-(1,3,4-thiadiazol-2-yl)pyridin-2-yl)methyl)-2-amino-N',3-dimethyl-N'-(pyrido[3,4-b]pyrazin-5-yl)quinoline-6-carbohy drazide], the IC50 (PRMT5-MTA) is reported as 4.3 nM, the IC50 (HCT116 MTAP KO cells) is reported as 46 nM and the “Selectivity HCT 116-WT/ HCT116 MTAP KO” value (HCT116 MTAP KO cells) is reported as 21.63. It also gave an IC50 (HCT116-WT cells) of 995 nM.
With `Cc1cc2cc(C(=O)N(Cc3ccc(-c4cnn(CF)c4)cn3)N(C)c3ncccn3)ccc2nc1N` [Example 233, 2-amino-N-((5-(1-(fluoromethyl)-1H-pyrazol-4-yl)pyridin-2-yl)methyl)-N',3-dimet hyl-N'-(pyrimidin-2-yl)quinoline-6-carbo hydrazide] the IC50 (PRMT5-MTA) was 4.4 nM, the IC50 (HCT116 MTAP KO cells) was 39 nM and the “Selectivity HCT 116-WT/ HCT116 MTAP KO” value (HCT116 MTAP KO cells) was 26.28. For the same compound, the IC50 (HCT116-WT cells) was 1020 nM.
For `Cc1cc2cc(C(=O)N(Cc3ccc(-c4scnc4C)cn3)N(C)c3ncccn3)ccc2nc1N` [Example 235, 2-amino-N',3-dimethyl-N-((5-(4-methylthiazol-5-yl)pyridin-2-yl)methyl)-N'-(pyrimidin-2-yl)quinoline-6-carbohydrazide], the IC50 (PRMT5-MTA) was 3.8 nM, the IC50 (HCT116 MTAP KO cells) was 5.7 nM and the “Selectivity HCT 116-WT/ HCT116 MTAP KO” value (HCT116 MTAP KO cells) was 32.11. For the same compound, the IC50 (HCT116-WT cells) was 183 nM.
For `Cc1cc2cc(C(=O)N(Cc3ccc(-c4scnc4CO)cn3)N(C)c3ncccn3)ccc2nc1N` [Example 236, 2-amino-N-((5-(4-(hydroxymethyl)thiazo 1-5-yl)pyridin-2-yl)methyl)-N',3-dimethyl -N'-(pyrimidin-2-yl)quinoline-6-carbohyd razide], the IC50 (PRMT5-MTA) was 6 nM, the IC50 (HCT116 MTAP KO cells) was 26 nM and the “Selectivity HCT 116-WT/ HCT116 MTAP KO” value (HCT116 MTAP KO cells) was 42.85. The IC50 (HCT116-WT cells) was 1110 nM.
In the case of `Cc1cc2cc(C(=O)N(Cc3ccc(-c4scnc4C(F)(F)F)cn3)N(C)c3ncccn3)ccc2nc1N` [Example 237, 2-amino-N',3-dimethyl-N'-(pyrimidin-2-yl)-N-((5-(4-(trifluoromethyl)thiazol-5-yl)pyridin-2-yl)methyl)quinoline-6-carbohydrazide], the IC50 (PRMT5-MTA) is reported as 8 nM, the IC50 (HCT116 MTAP KO cells) is reported as 32 nM and the “Selectivity HCT 116-WT/ HCT116 MTAP KO” value (HCT116 MTAP KO cells) is reported as 36.97. For the same compound, the IC50 (HCT116-WT cells) was 1180 nM.
`[2H]c1nc(C)c(-c2ccc(CN(C(=O)c3ccc4nc(N)c(C)cc4c3)N(c3ncccn3)C3CC3)nc2)s1` [Example 238, 2-amino-N'-cyclopropyl-3-methyl-N-((5-(4-methylthiazol-5-yl-2d)pyridin-2-yl)methyl)-N'-(pyrimidin-2-yl)quinoline-6-carbohydrazide] was tested, and the IC50 (PRMT5-MTA) was 5.7 nM, the IC50 (HCT116 MTAP KO cells) was 5.1 nM and the “Selectivity HCT 116-WT/ HCT116 MTAP KO” value (HCT116 MTAP KO cells) was 21.96. It also gave an IC50 (HCT116-WT cells) of 112 nM.
For `Cc1cc2cc(C(=O)N(Cc3ccc(-c4scnc4C(F)F)cn3)N(c3ncccn3)C3CC3)ccc2nc1N` [Example 239, 2-amino-N'-cyclopropyl-N-((5-(4-(difluoromethyl)thiazol-5-yl)pyridin-2-yl)methyl)-3-methyl-N'-(pyrimidin-2-yl)quinoline-6-carbohydrazide], the IC50 (PRMT5-MTA) was 7.3 nM, the IC50 (HCT116 MTAP KO cells) was 14 nM and the “Selectivity HCT 116-WT/ HCT116 MTAP KO” value (HCT116 MTAP KO cells) was 18.64. For the same compound, the IC50 (HCT116-WT cells) was 261 nM.
`Cc1cc2cc(C(=O)N(Cc3ccc(-c4scnc4C4CC4)cn3)N(c3ncccn3)C3CC3)ccc2nc1N` [Example 240, 2-amino-N'-cyclopropyl-N-((5-(4-cyclopropylthiazol-5-yl)pyridin-2-yl)methyl)-3-methyl-N'-(pyrimidin-2-yl)quinoline-6-carbohydrazide] was tested, and the IC50 (PRMT5-MTA) was 3.9 nM, the IC50 (HCT116 MTAP KO cells) was 36 nM and the “Selectivity HCT 116-WT/ HCT116 MTAP KO” value (HCT116 MTAP KO cells) was 11.00. The IC50 (HCT116-WT cells) was 396 nM.
With `CCc1ncsc1-c1ccc(CN(C(=O)c2ccc3nc(N)c(C)cc3c2)N(C)c2ncccn2)nc1` [Example 241, 2-amino-N-((5-(4-ethylthiazol-5-yl)pyridin-2-yl)methyl)-N',3-dimethyl-N'-(pyrimidin-2-yl)quinoline-6-carbohydrazide] the IC50 (PRMT5-MTA) was 7.3 nM, the IC50 (HCT116 MTAP KO cells) was 37 nM and the “Selectivity HCT 116-WT/ HCT116 MTAP KO” value (HCT116 MTAP KO cells) was 18.27. The IC50 (HCT116-WT cells) was 676 nM.
